pIC50: −log10 of the molar value.
target: recombinant human HPK1 (Homo sapiens (Human), UniProt Q92918); experiment: HPK1 kinase assay (ADP-Glo); type: biochemical; details: 25 μM ATP, MBP substrate
In short: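 Activity was read as ADP formed, detected by ADP-Glo luminescence after the reaction of 5 ng recombinant human HPK1 with MBP and ATP (stocks 0.5 μg/μl and 25 μM) for 40 min at 30 °C. Buffer was Tris pH 7.5 with MgCl2, BSA and DTT, with compound in 0.5% DMSO. IC50 came from inhibition curves.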

Sequence of recombinant human HPK1 (Q92918 whole entry): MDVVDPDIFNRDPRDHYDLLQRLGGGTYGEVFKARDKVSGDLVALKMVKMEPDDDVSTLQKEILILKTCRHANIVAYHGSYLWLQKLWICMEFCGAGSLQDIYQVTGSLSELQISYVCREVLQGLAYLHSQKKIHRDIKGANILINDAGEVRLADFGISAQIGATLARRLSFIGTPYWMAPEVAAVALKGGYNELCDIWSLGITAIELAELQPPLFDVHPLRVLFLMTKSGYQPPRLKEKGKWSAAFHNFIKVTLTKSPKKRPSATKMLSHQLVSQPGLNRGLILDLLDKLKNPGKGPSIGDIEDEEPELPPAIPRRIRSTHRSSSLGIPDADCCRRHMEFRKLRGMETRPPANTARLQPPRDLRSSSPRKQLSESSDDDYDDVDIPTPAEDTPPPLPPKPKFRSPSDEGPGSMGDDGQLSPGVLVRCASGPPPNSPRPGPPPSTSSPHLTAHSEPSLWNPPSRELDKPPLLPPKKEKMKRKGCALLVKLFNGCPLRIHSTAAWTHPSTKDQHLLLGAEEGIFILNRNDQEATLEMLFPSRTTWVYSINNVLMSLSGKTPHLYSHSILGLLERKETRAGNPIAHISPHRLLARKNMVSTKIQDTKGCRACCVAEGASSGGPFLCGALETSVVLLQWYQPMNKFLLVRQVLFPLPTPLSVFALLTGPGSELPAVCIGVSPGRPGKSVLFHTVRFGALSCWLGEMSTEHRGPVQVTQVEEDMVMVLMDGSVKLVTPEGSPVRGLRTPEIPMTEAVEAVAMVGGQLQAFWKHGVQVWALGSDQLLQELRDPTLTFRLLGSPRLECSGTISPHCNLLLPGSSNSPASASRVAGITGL

pIC50 | Compound
> 7.00 | CN(CCO)c1c(F)c(Cl)c(-c2ccc3nc(NC(=O)[C@@H]4C[C@@H]4F)sc3c2)c2cn[nH]c12 [Example 93, (1S,2S)-N-(6-(5-chloro-6-fluoro-7-((2-hydroxyethyl)(methyl)amino)-1H-indazol-4-yl)benzo[d]thiazol-2-yl)-2-fluorocyclopropanecarboxamide]
> 7.00 | CN(CC1CNC1)c1c(F)c(Cl)c(-c2ccc3nc(NC(=O)[C@@H]4C[C@@H]4F)sc3c2)c2cn[nH]c12 [Example 94, (1S,2S)-N-(6-(7-((azetidin-3-ylmethyl)(methyl)amino)-5-chloro-6-fluoro-1H-indazol-4-yl)benzo[d]thiazol-2-yl)-2-fluorocyclopropanecarboxamide]
> 7.00 | O=C(Nc1nc2ccc(-c3c(Cl)c(F)c(NCC4CNC4)c4[nH]ncc34)cc2s1)[C@@H]1C[C@@H]1F [Example 95, (1S,2S)-N-(6-(7-((azetidin-3-ylmethyl)amino)-5-chloro-6-fluoro-1H-indazol-4-yl)benzo[d]thiazol-2-yl)-2-fluorocyclopropanecarboxamide]
> 7.00 | COc1cc(C)c(-c2ccc3nc(NC(=O)[C@@H]4C[C@@H]4F)sc3c2)c2cn[nH]c12 [Example 96, (1S,2S)-2-fluoro-N-(6-(7-methoxy-5-methyl-1H-indazol-4-yl)benzo[d]thiazol-2-yl)cyclopropanecarboxamide]
> 7.00 | COc1c(F)c(C)c(-c2ccc3nc(NC(=O)[C@@H]4C[C@@H]4F)sc3c2)c2cn[nH]c12 [Example 97, (1S,2S)-2-fluoro-N-(6-(6-fluoro-7-methoxy-5-methyl-1H-indazol-4-yl)benzo[d]thiazol-2-yl)cyclopropanecarboxamide]
> 7.00 | CCOc1c(F)c(C)c(-c2ccc3nc(NC(=O)[C@@H]4C[C@@H]4F)sc3c2)c2cn[nH]c12 [Example 98, (1S,2S)-N-(6-(7-ethoxy-6-fluoro-5-methyl-1H-indazol-4-yl)benzo[d]thiazol-2-yl)-2-fluorocyclopropanecatboxamide]
> 7.00 | CN(C)C(=O)CSc1c(F)c(Cl)c(-c2ccc3nc(NC(=O)[C@@H]4C[C@@H]4F)sc3c2)c2cn[nH]c12 [Example 99, (1S,2S)-N-(6-(5-chloro-7-((2-(dimethylamino)-2-oxoethyl)thio)-6-fluoro-1H-indazol-4-yl)benzo[d]thiazol-2-yl)-2-fluorocyclopropane-1-carboxamide]
> 7.00 | CN(C)C(=O)CN(C)c1c(F)c(Cl)c(-c2ccc3nc(NC(=O)[C@@H]4C[C@@H]4F)sc3c2)c2cn[nH]c12 [Example 100, (1S,2S)-N-(6-(5-chloro-7-((2-(dimethylamino)-2-oxoethyl)(methyl)amino)-6-fluoro-1H-indazol-4-yl)benzo[d]thiazol-2-yl)-2-fluorocyclopropane-1-carboxamide]
> 7.00 | CCOc1cc(C)c(-c2ccc3nc(NC(=O)[C@@H]4C[C@@H]4F)sc3c2)c2cn[nH]c12 [Example 101, (1S,2S)-N-(6-(7-ethoxy-5-methyl-1H-indazol-4-yl)benzo[d]thiazol-2-yl)-2-fluorocyclopropane-1-carboxamide]
> 7.00 | CCc1c(F)c(N(C)C)c2[nH]ncc2c1-c1ccc2nc(NC(=O)[C@@H]3C[C@@H]3F)sc2c1 [Example 102, (1S,2S)-N-(6-(7-(dimethylamino)-5-ethyl-6-fluoro-1H-indazol-4-yl)benzo[d]thiazol-2-yl)-2-fluorocyclopropane-1-carboxamide]
> 7.00 | CCc1c(F)c(SC)c2[nH]ncc2c1-c1ccc2nc(NC(=O)[C@@H]3C[C@@H]3F)sc2c1 [Example 103, (1S,2S)-N-(6-(5-ethyl-6-fluoro-7-(methylthio)-1H-indazol-4-yl)benzo[d]thiazol-2-yl)-2-fluorocyclopropane-1-carboxamide]
> 7.00 | CCc1c(F)c(F)c2[nH]ncc2c1-c1ccc2nc(NC(=O)[C@@H]3C[C@@H]3F)sc2c1 [Example 106, (1S,2S)-N-(6-(5-ethyl-6,7-difluoro-1H-indazol-4-yl)benzo[d]thiazol-2-yl)-2-fluorocyclopropane-1-carboxamide]
> 7.00 | CC(=O)Nc1c(F)c(Cl)c(-c2ccc3nc(NC(=O)[C@@H]4C[C@@H]4F)sc3c2)c2cn[nH]c12 [Example 108, (1S,2S)-N-(6-(7-acetamido-5-chloro-6-fluoro-1H-indazol-4-yl)benzo[d]thiazol-2-yl)-2-fluorocyclopropane-1-carboxamide]
> 7.00 | Cc1c(F)c(F)c2[nH]ncc2c1-c1ccc2nc(NC(=O)[C@@H]3C[C@@H]3F)sc2c1 [Example 109, (1S,2S)-N-(6-(6,7-difluoro-5-methyl-1H-indazol-4-yl)benzo[d]thiazol-2-yl)-2-fluorocyclopropane-1-carboxamide]
6.30 to 7.00 | Cc1c(F)c(S(C)(=O)=O)c2[nH]ncc2c1-c1ccc2nc(NC(=O)[C@@H]3C[C@@H]3F)sc2c1 [Example 112, (1S,2S)-2-fluoro-N-(6-(6-fluoro-5-methyl-7-(methylsulfonyl)-1H-indazol-4-yl)benzo[d]thiazol-2-yl)cyclopropane-1-carboxamide]
> 7.00 | CC(=O)Nc1c(F)c(C)c(-c2ccc3nc(NC(=O)[C@@H]4C[C@@H]4F)sc3c2)c2cn[nH]c12 [Example 113, (1S,2S)-N-(6-(7-acetamido-6-fluoro-5-methyl-1H-indazol-4-yl)benzo[d]thiazol-2-yl)-2-fluorocyclopropane-1-carboxamide]
6.30 to 7.00 | CN(Nc1c(F)c(Cl)c(-c2ccc3nc(NC(=O)[C@@H]4C[C@@H]4F)sc3c2)c2cn[nH]c12)C(=O)OC(C)(C)C [Example 114, tert-butyl 2-(5-chloro-6-fluoro-4-(2-((1S,2S)-2-fluorocyclopropane-1-carboxamido)benzo[d]thiazol-6-yl)-1H-indazol-7-yl)-1-methylhydrazine-1-carboxylate]
> 7.00 | CNNc1c(F)c(Cl)c(-c2ccc3nc(NC(=O)[C@@H]4C[C@@H]4F)sc3c2)c2cn[nH]c12 [Example 115, (1S,2S)-N-(6-(5-chloro-6-fluoro-7-(2-methylhydrazineyl)-1H-indazol-4-yl)benzo[d]thiazol-2-yl)-2-fluorocyclopropane-1-carboxamide]
> 7.00 | COC(=O)c1c(F)c(C)c(-c2ccc3nc(NC(=O)[C@@H]4C[C@@H]4F)sc3c2)c2cn[nH]c12 [Example 116, methyl 6-fluoro-4-(2-((1S,2S)-2-fluorocyclopropane-1-carboxamido)benzo[d]thiazol-6-yl)-5-methyl-1H-indazole-7-carboxylate]
> 7.00 | CSc1c(F)c(F)c2[nH]ncc2c1-c1ccc2nc(NC(=O)[C@@H]3C[C@@H]3F)sc2c1 [Example 117, (1S,2S)-N-(6-(6,7-difluoro-5-(methylthio)-1H-indazol-4-yl)benzo[d]thiazol-2-yl)-2-fluorocyclopropane-1-carboxamide 2,2,2-trifluoroacetate]
6.30 to 7.00 | CS(=O)(=O)c1c(F)c(Cl)c(-c2ccc3nc(NC(=O)[C@@H]4C[C@@H]4F)sc3c2)c2cn[nH]c12 [Example 119, (1S,2S)-N-(6-(5-chloro-6-fluoro-7-(methylsulfonyl)-1H-indazol-4-yl)benzo[d]thiazol-2-yl)-2-fluorocyclopropane-1-carboxamide]
> 7.00 | CC(=O)N(C)c1c(F)c(C)c(-c2ccc3nc(NC(=O)[C@@H]4C[C@@H]4F)sc3c2)c2cn[nH]c12 [Example 120, (1S,2S)-2-fluoro-N-(6-(6-fluoro-5-methyl-7-(N-methylacetamido)-1H-indazol-4-yl)benzo[d]thiazol-2-yl)cyclopropane-1-carboxamide]
< 6.00 | O=C(O)c1c(F)c(Cl)c(-c2ccc3nc(NC(=O)[C@@H]4C[C@@H]4F)sc3c2)c2cn[nH]c12 [Example 121, 5-chloro-6-fluoro-4-(2-((1S,2S)-2-fluorocyclopropane-1-carboxamido)benzo[d]thiazol-6-yl)-1H-indazole-7-carboxylic acid]
> 7.00 | COC(=O)c1c(F)c(Cl)c(-c2ccc3nc(NC(=O)[C@@H]4C[C@@H]4F)sc3c2)c2cn[nH]c12 [Example 122, methyl 5-chloro-6-fluoro-4-(2-((1S,2S)-2-fluorocyclopropane-1-carboxamido)benzo[d]thiazol-6-yl)-1H-indazole-7-carboxylate]
< 6.00 | Cc1c(F)c(C(=O)O)c2[nH]ncc2c1-c1ccc2nc(NC(=O)[C@@H]3C[C@@H]3F)sc2c1 [Example 124, 6-fluoro-4-(2-((1S,2S)-2-fluorocyclopropane-1-carboxamido)benzo[d]thiazol-6-yl)-5-methyl-1H-indazole-7-carboxylic acid]
> 7.00 | O=C(Nc1nc2ccc(-c3c(Cl)c(F)c(F)c4[nH]ncc34)cc2s1)[C@@H]1C[C@@H]1F [Example 126, (1S,2S)-N-(6-(5-chloro-6,7-difluoro-1H-indazol-4-yl)benzo[d]thiazol-2-yl)-2-fluorocyclopropane-1-carboxamide]
> 7.00 | CNC(=O)c1c(F)c(Cl)c(-c2ccc3nc(NC(=O)[C@@H]4C[C@@H]4F)sc3c2)c2cn[nH]c12 [Example 127, 5-chloro-6-fluoro-4-(2-((1S,2S)-2-fluorocyclopropane-1-carboxamido)benzo[d]thiazol-6-yl)-N-methyl-1H-indazole-7-carboxamide]
6.30 to 7.00 | CC(=O)c1c(F)c(Cl)c(-c2ccc3nc(NC(=O)[C@@H]4C[C@@H]4F)sc3c2)c2cn[nH]c12 [Example 128, (1S,2S)-N-(6-(7-acetyl-5-chloro-6-fluoro-1H-indazol-4-yl)benzo[d]thiazol-2-yl)-2-fluorocyclopropane-1-carboxamide]
> 7.00 | CN(c1c(F)c(Cl)c(-c2ccc3nc(NC(=O)[C@@H]4C[C@@H]4F)sc3c2)c2cn[nH]c12)C1CNC1 [Example 129, (1S,2S)-N-(6-(7-(azetidin-3-yl(methyl)amino)-5-chloro-6-fluoro-1H-indazol-4-yl)benzo[d]thiazol-2-yl)-2-fluorocyclopropane-1-carboxamide]

Reference: patent publication US11649255B2, “Indazoles as hematopoietic progenitor kinase 1 (HPK1) inhibitors and methods using same” (1st Biotherapeutics, Inc., priority 2020, dated 2023)
